Where two headings read alike, the source gives them in different places.
Legend:
[1] = target: T1, p53 Y220C mutant protein (amino acid residues 94-293) (Homo sapiens, UniProt P04637, Y220C); experiment: Surface Plasmon Resonance (SPR) assay, Kd_kinetic; type: binding; details: SPR, p53 Y220C, read-out: SPR P53 Y220C KD kinetic
T1 construct: p53 Y220C mutant protein (amino acid residues 94-293)
Outline: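 Kd values come from fitting sensorgrams to a 1:1 binding model. Sensorgrams were recorded on a Biacore 8K at 16 or 20 °C in pH 7.5 Tris buffer with 100 mM NaCl, 1 mM DTT, detergents and 1% DMSO.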

p53 Y220C = p53 Y220C (Homo sapiens, UniProt P04637, Y220C); experiment: Luciferase Reporter Assay (Luc), p53 response element, NClH1299 cells with inducible p53 Y220C; type: cell-based; details: 6 hour; for AC50: read-out: Luc P53 Y220C AC50
Outline: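 Luciferase activity is measured directly after One-Glo addition and a 5-minute room-temperature shake. Before that, cells plated at 5,000 per well receive doxycycline at 0.5 ug/mL for 24 hours, followed by compound for 6 hours.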

NUGC3 p53 Y220C = experiment: Cell Proliferation Assay (CellTiter-Glo, CTG), NUGC3 p53 Y220C; type: cell-based; details: Homo sapiens, NUGC-3, 120 h, 5 days
Outline: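 NClH1299 lines stably transduced with Tet-inducible p53 Y220C or R273H, plus NUGC3, were treated with compound for 5 days at 250-500 cells/well. IC50 derived from CellTiter-Glo luminescent signal after 10 min room-temperature incubation.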

H1299 p53 Y220C = experiment: Cell Proliferation Assay (CellTiter-Glo, CTG), H1299 p53 Y220C (NClH1299-inducible p53 Y220C); type: cell-based; details: Homo sapiens, NCI-H1299, 120 h, 5 days
Outline: (§1)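 Tet-One inducible p53 Y220C or R273H constructs were stably introduced into NCI-H1299 by lentiviral transduction; NUGC3 was used as is. Cells (250-500 per well) were exposed to compound for 5 days, then CellTiter-Glo was added for 10 min at room temperature and IC50 was calculated from luminescence.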

H1299 p53 R273H = experiment: Cell Proliferation Assay (CellTiter-Glo, CTG), H1299 p53 R273H (NClH1299-inducible p53 R273H); type: cell-based; details: Homo sapiens, NCI-H1299, 120 h, 5 days
Outline: as §1

[2] = AC50, NClH1299 cells with inducible p53 Y220C
[3] = Emax, NClH1299 cells with inducible p53 Y220C, 10 uM tool compound as positive control
[4] = NClH1299-inducible p53 Y220C cells
[5] = NClH1299-inducible p53 R273H cells
[6] = AC50, luciferase reporter, NClH1299 inducible p53 Y220C
[7] = Emax, luciferase reporter, NClH1299 inducible p53 Y220C
[8] = NClH1299-inducible p53 Y220C cells, CellTiter-Glo
[9] = NClH1299-inducible p53 R273H cells, CellTiter-Glo
[10] = luciferase reporter, NClH1299 inducible p53 Y220C, 10 uM tool compound as positive control
[11] = luciferase reporter, NClH1299 inducible p53 Y220C

T1 sequence (P04637 94-293, stated change not applied): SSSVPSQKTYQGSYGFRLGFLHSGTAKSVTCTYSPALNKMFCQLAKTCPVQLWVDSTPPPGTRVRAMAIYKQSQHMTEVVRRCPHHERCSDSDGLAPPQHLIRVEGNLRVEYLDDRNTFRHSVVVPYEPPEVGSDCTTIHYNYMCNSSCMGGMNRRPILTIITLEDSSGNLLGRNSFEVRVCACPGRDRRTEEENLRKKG

SMILES | Kd [1] [nM] | AC50 (p53 Y220C; [2]) [nM] | Emax (p53 Y220C; [3]) [%] | IC50 (NUGC3 p53 Y220C; NUGC3 cells) [nM] | IC50 (H1299 p53 Y220C; [4]) [nM] | IC50 (H1299 p53 R273H; [5]) [nM] | AC50 (p53 Y220C; [6]) [nM] | Emax (p53 Y220C; [7]) [%] | IC50 (NUGC3 p53 Y220C; NUGC3 cells, CellTiter-Glo) [nM] | IC50 (H1299 p53 Y220C; [8]) [nM] | IC50 (H1299 p53 R273H; [9]) [nM] | Kd ([1]; kinetic KD) [nM] | Emax (p53 Y220C; [10]) [%] | AC50 (p53 Y220C; [11]) [nM] | IC50 (NUGC3 p53 Y220C; CellTiter-Glo, NUGC3 p53 Y220C) [nM] | IC50 (H1299 p53 Y220C; CellTiter-Glo, H1299 p53 Y220C) [nM] | IC50 (H1299 p53 R273H; CellTiter-Glo, H1299 p53 R273H) [nM]
CNC(=O)c1ccc(O[C@H]2C[C@H](O)C2)c(NCC#Cc2cc3c(N[C@@H]4CCN(C)C[C@@H]4F)cccn3c2SC(F)(F)F)c1 [Example 497, 3-{[3-(8-{[(3S,4R)-3-fluoro-1-methylpiperidin-4-yl]amino}-3-[(trifluoromethyl)sulfanyl]indolizin-2-yl)prop-2-yn-1-yl]amino}-N-methyl-4-[(1r,3r)-3-hydroxycyclobutoxy]benzamide] | < 10 | < 750 | > 90 | < 750 | < 750 | ≥ 10000 |  |  |  |  |  |  |  |  |  |  | 
[2H]C([2H])([2H])Oc1ccc(C(=O)NC)cc1NCC#Cc1cc2c(N[C@@H]3CCN(C)C[C@@H]3F)nccn2c1SC(F)(F)F [Example 470, 3-((3-(1-(((3S,4R)-3-fluoro-1-methylpiperidin-4-yl)amino)-6-((trifluoromethyl)thio)pyrrolo[1,2-a]pyrazin-7-yl)prop-2-yn-1-yl)amino)-4-(methoxy-d3)—N-methylbenzamide] | < 10 | < 750 | > 90 | < 750 | < 750 | ≥ 10000 |  |  |  |  |  |  |  |  |  |  | 
[2H]C([2H])([2H])Oc1cc(C(=O)NC)ccc1NCC#Cc1cc2c(N[C@@H]3CCN(C)C[C@@H]3F)cccn2c1SC(F)(F)F [Example 442, 4-((3-(8-(((3S,4R)-3-fluoro-1-methylpiperidin-4-yl)amino)-3-((trifluoromethyl)thio)indolizin-2-yl)prop-2-yn-1-yl)amino)-3-(methoxy-d3)-N-methylbenzamide] | < 10 |  |  |  |  |  | < 750 | 80 to 90 | < 750 | < 750 | 5000 to 8000 |  |  |  |  |  | 
CNC(=O)c1ccc(NCC#Cc2nc3c(N[C@@H]4CN(C)C[C@@H]4F)nccn3c2SC(F)(F)F)c(OC)c1 [Example 323] | < 10 |  |  |  |  |  | 750 to 1500 | > 90 | 750 to 1500 | 750 to 1500 | ≥ 10000 |  |  |  |  |  | 
CN1CC[C@@H](Nc2cccn3c(SC(F)(F)F)c(C#CCNc4ccc(P(C)(C)=O)c5ocnc45)cc23)[C@@H](F)C1 [Example 437, 7-(dimethylphosphoryl)-N-[3-(8-{[(3S,4R)-3-fluoro-1-methylpiperidin-4-yl]amino}-3-[(trifluoromethyl)sulfanyl]indolizin-2-yl)prop-2-yn-1-yl]-1,3-benzoxazol-4-amine] | < 10 |  |  |  |  |  | < 750 | > 90 | < 750 | < 750 | ≥ 10000 |  |  |  |  |  | 
CNC(=O)c1ccc(OC)c(NCC#Cc2cc3c(N[C@@H]4CCN(C)C[C@@H]4F)nccn3c2SC(F)F)n1 [Example 333] | < 10 |  |  |  |  |  | < 750 | > 90 | < 750 | < 750 | ≥ 10000 |  |  |  |  |  | 
COc1cc(C(=O)N2CC(C)(O)C2)ccc1NCC#Cc1cc2c(N[C@@H]3CCN(C)C[C@@H]3F)cccn2c1SC(F)(F)F [Example 377] | < 10 |  |  |  |  |  | < 750 | > 90 | < 750 | < 750 | 5000 to 8000 |  |  |  |  |  | 
CNC(=O)c1ccc(OC)c(NCC#Cc2nc3c(N[C@H]4[C@H]5CC[C@@H]4NC5)cccn3c2SC(F)(F)F)c1 [Example 244] | < 10 |  |  |  |  |  | > 3000 | 80 to 90 | 750 to 1500 | 1500 to 3000 | ≥ 10000 |  |  |  |  |  | 
CNC(=O)c1cnc(C(=O)NC)c(NCC#Cc2cc3c(N[C@@H]4CCN(C)C[C@@H]4F)cccn3c2SC(F)(F)F)c1 [Example 496] | < 10 | < 750 | > 90 | < 750 | < 750 | 5000 to 8000 |  |  |  |  |  |  |  |  |  |  | 
O=C(NC[C@H]1COCCO1)c1ccc(NCC#Cc2cc3c(N[C@@H]4CCNC[C@@H]4F)cccn3c2SC(F)(F)F)cc1 [Example 369] | < 10 |  |  |  |  |  | < 750 | > 90 | < 750 | < 750 | 5000 to 8000 |  |  |  |  |  | 
CNC(=O)c1ccc(OC)c(NCC#Cc2cc3c(N[C@@H]4CN(C)C[C@@H]4F)nccn3c2SC(F)F)c1 [Example 331] | < 10 |  |  |  |  |  | < 750 | > 90 | < 750 | < 750 | ≥ 10000 |  |  |  |  |  | 
CNS(=O)(=O)c1ccc(OC)c(NCC#Cc2cc3c(N[C@@H]4CCN(C)C[C@@H]4F)nccn3c2SC(F)(F)F)c1 [Example 335] | < 10 |  |  |  |  |  | 1500 to 3000 | 80 to 90 | 1500 to 3000 | 1500 to 3000 | ≥ 10000 |  |  |  |  |  | 
CNC(=O)c1cc(NCC#Cc2cc3c(N[C@@H]4CCN(C)C[C@@H]4F)cccn3c2SC(F)(F)F)c2nncn2c1 [Example 483, 8-{[3-(8-{[(3S,4R)-3-fluoro-1-methylpiperidin-4-yl]amino}-3-[(trifluoromethyl)sulfanyl]indolizin-2-yl)prop-2-yn-1-yl]amino}-N-methyl-[1,2,4]triazolo[4,3-a]pyridine-6-carboxamide] | < 10 | < 750 | > 90 | < 750 | < 750 | ≥ 10000 |  |  |  |  |  |  |  |  |  |  | 
CNC(=O)c1ccc(OC)c(NCC#Cc2nc3c(N[C@@H]4C[C@@H]5CC[C@H]4N5C)cccn3c2SC(F)(F)F)c1 [Example 249] | < 10 |  |  |  |  |  | 750 to 1500 | < 70 | 750 to 1500 | 750 to 1500 | 5000 to 8000 |  |  |  |  |  | 
CNC(=O)c1ccc(NCC#Cc2nc3c(N[C@@H]4C[C@H]5COC[C@@H]([C@@H]4F)N5C)cccn3c2SC(F)(F)F)c(OC)c1 [Example 137] |  |  |  |  |  |  |  |  |  |  |  | 10 to 100 | < 70 | > 3000 | > 3000 | > 3000 | ≥ 10000
COc1cc(C(=O)O)ccc1NCC#Cc1cc2c(N[C@@H]3CCN(C)C[C@@H]3F)cccn2c1SC(F)(F)F [Example 451] | < 10 |  |  |  |  |  | < 750 | > 90 | < 750 | < 750 | ≥ 10000 |  |  |  |  |  | 
C[C@@H](O)CNC(=O)c1ccc(NCC#Cc2cc3c(N[C@@H]4CCN(C)C[C@@H]4F)cccn3c2SC(F)(F)F)cc1 [Example 414] | < 10 |  |  |  |  |  | < 750 | > 90 | < 750 | < 750 | ≥ 10000 |  |  |  |  |  | 
CNC(=O)c1ccc(OC)c(NCC#Cc2cc3c(N[C@@H]4CCNC[C@@H]4F)nccn3c2SC(F)F)c1 [Example 326] | < 10 |  |  |  |  |  | < 750 | > 90 | < 750 | < 750 | ≥ 10000 |  |  |  |  |  | 
CNC(=O)c1ccc(OC)c(NCC#Cc2nn3c(N[C@@H]4CCN(C)C[C@@H]4F)ccnc3c2SC(F)(F)F)c1 [Example 216, 3-{[3-(7-{[(3S,4R)-3-fluoro-1-methylpiperidin-4-yl]amino}-3-[(trifluoromethyl)sulfanyl]pyrazolo[1,5-a]pyrimidin-2-yl)prop-2-yn-1-yl]amino}-4-methoxy-N-methylbenzamide] |  |  |  |  |  |  |  |  |  |  |  | 10 to 100 | < 70 | > 3000 | 1500 to 3000 | 1500 to 3000 | < 5000
CNC(=O)c1cnc(OC)c(NCC#Cc2nc3c(N[C@H]4C[C@@H]5CC[C@H]([C@H]4F)N5C)cccn3c2SC(F)(F)F)c1 [Example 266] | < 10 |  |  |  |  |  | < 750 | 70 to 80 | < 750 | < 750 | ≥ 10000 |  |  |  |  |  | 
COc1cc(P(C)(C)=O)ccc1NCC#Cc1cc2c(N[C@@H]3CCNC[C@@H]3F)cccn2c1SC(F)(F)F [Example 379] | < 10 |  |  |  |  |  | < 750 | > 90 | < 750 | < 750 | ≥ 10000 |  |  |  |  |  | 

— US20260374766A1, “METHODS FOR TREATING CANCER” (Antares Therapeutics, Inc., priority 2022, published 2026)
